What was measured:
Type in all cases: biochemical
[1] = biological target: T1, Aβ1-42 (Homo sapiens, UniProt P05067); experiment: ThT fluorescence assay of Aβ1-42 fibril formation; conditions: screen on prone-to-aggregate proteins (FIG. 2A, FIG. 4A); Aβ 7 μM
T1 construct: α-syn, Aβ1-40, Aβ1-42 were procured from rPeptide; purchased rPeptide
Protocol: (§1) Thioflavin-T (ThT) fluorescence assays. Thioflavin-T (ThT) fluorescence assays were used to monitor fibril formation of recombinant Ap (fragments 1-40 and 1-42), recombinant α-syn, recombinant tau isoform 2N4R, synthetic IAPP, and synthetic TTR peptides treated with BTA and its derivatives. The IAPP ThT assay was performed in 10 mM PBS (pH 7.4) at a final concentration of 10 μM for both IAPP and ThT as published previously. Aβ fragments 1-40 and 1-42 were tested at 7 μM in 10 mM of PBS using ThT at a final concentration of 20 μM. Kinetics of α-syn fibrillization were performed as published previously.^36-37 TTR fragment kinetics of fibril formation were assessed at 10 μM in 100 mM sodium acetate buffer supplemented with 100 mM KCl and 1 mM ethylenediaminetetraacetic acid (EDTA) (pH 4) with 20 μM ThT. The fluorescence emission experiments were performed with the excitation and emission wavelengths set at 440 and 485 nm, respectively, with a Synergy HT multi-mode microplate reader (BioTek, Winooski, VT). Samples were measured in three replicates, and the experiments were repeated three times using at least two different stock solutions. For each time point, arbitrary units of fluorescence were calculated from the mean values normalized against the maximum value in each completed assay. The lag time for each condition was calculated as previously described. All results contained in histograms were presented as mean±SEM. Data were analyzed by the one-way analysis of variance with Dunnett's multiple comparisons between controls and compounds. Differences were considered statistically significant at p<0.05.

[2] = biological target: T2, Aβ1-40 (Homo sapiens, UniProt P05067); experiment: ThT fluorescence assay of Aβ1-40 fibril formation; conditions: screen on prone-to-aggregate proteins (FIG. 4A); Aβ 7 μM
T2 construct: α-syn, Aβ1-40, Aβ1-42 were procured from rPeptide; purchased rPeptide
Protocol: as §1, with “All results contained in histograms were presented as mean±SEM. Data were analyzed by the one-way analysis of variance with Dunnett's multiple comparisons between controls and compounds. Differences were considered statistically significant at p<0.05.” left out

[3] = biological target: T3, transthyretin fragment peptide (TTR81-127) (Homo sapiens, UniProt P02766); experiment: ThT fluorescence assay of TTR81-127 fibril formation; conditions: for remaining activity at 100 µM: compounds at 100 μM, TTR81-127 10 μM, control 0.25% DMSO, read-out: ThT TTR81-127 (%), maximum thioflavin T (ThT) intensity in percentage
T3 construct: TTR fragment 81-127 was obtained from AnaSpec; purchased AnaSpec; host or cells: synthetic peptide
Protocol: as §1

[4] = biological target: T4, α-syn (Homo sapiens, UniProt P37840); experiment: Photo-induced cross-linking of unmodified proteins (PICUP), α-syn oligomerization; conditions: compound 50 μM, molar ratio 1:5 (protein:compound)
T4 construct: purchased rPeptide
Protocol: (§2) Photo-induced Cross-linking of Unmodified Proteins (PICUP) Assay. To induce oligomerization by cross-linking, α-syn (from Rpeptide, LLC) and tau isoform 2N4R were diluted in 10 mM phosphate buffer (pH 7.4) to reach a final concentration of 10 μM. Different compounds were added to the protein solution at a final concentration of 50 μM, resulting in a molar ratio of 1:5. To confirm the gradual effect of the compounds on the inhibition of α-syn oligomerization, the compounds were tested at final concentrations of 3.125, 6.25, 12.5, 25, and 50 μM. The controls consisted of samples without light exposition, without Ru(bpy) or ammonium persulfate, and without compound (i.e., 0.125% DMSO). The cross-linking reaction was initiated by the addition of 2 μL of Ru(bpy) (300 μM final concentration) and 2 μL ammonium persulfate (6 mM final concentration). Samples were irradiated immediately. Light exposure was of a one-second duration for α-syn and a three-second duration for tau isoform 2N4R, with a 53 W (120 V) incandescent lamp installed in a homemade dark-box. Each tube contained a final volume of 20 μL. After irradiation, 8.3 μL of Laemmli loading buffer containing 15% β-mercaptoethanol were immediately added to the solution, followed by incubation at 95° C. for 10 minutes. The cross-linked samples were separated on a 16% SDS-PAGE gel and visualized by Coomassie blue staining.

[5] = biological target: T5, α-synuclein (α-syn) (Homo sapiens, UniProt P37840); experiment: Thioflavin-T (ThT) fluorescence assay of α-syn fibril formation; conditions: for remaining activity at 100 µM: compounds at 100 μM, α-syn 6.25 μM, control 0.25% DMSO, read-out: ThT a-Syn (%), maximum thioflavin T (ThT) intensity in percentage
T5 construct: purchased rPeptide
Protocol: as §1
(§3) Compounds with the highest anti-fibrillary activity were tested at 3.125, 6.25, 12.5, 25, 50, and 100 μM to obtain dose-response curves with prepared α-syn and 2N4R tau at 6.25 μM and 6 μM, respectively. Compounds were tested with α-syn using a previously published procedure. Concerning the tau (isoform 2N4R) kinetics of fibril formation, measurements of ThT fluorescence were performed with a solution of the protein diluted to a final concentration of 6 μM in PBS (pH 7.4) supplemented with 1.5 μM heparin, 20 μM ThT, 2.5 mM DTT, and 100 μM compound. Aliquots of the diluted protein solution (100 μL each) were pipetted into the wells of a 96-well plate, and a Teflon ball was added to each well. The plate was incubated at 37° C. with constant shaking at 1,000 rpm in a Tecan Spark plate reader. ThT fluorescence was measured every 15 minutes with excitation and emission wavelengths of 440 nm and 480 nm, and the data were plotted using GraphPad Prism.

[6] = biological target: T6, tau isoform 2N4R (Homo sapiens, UniProt P10636); experiment: PICUP, tau isoform 2N4R oligomerization; conditions: compound 50 μM
T6 construct: made in house; host or cells: E. coli BL21(DE3)
Protocol: (§4) The bacterial expression plasmid consisting of the vector pRK172 carrying a cDNA encoding the human Tau 2N4R isoform was obtained from Dr. David Eliezer (Weill Cornell Medicine, New York, NJ). For protein expression, E. coli BL21(DE3) cells were transformed with the plasmid and grown in LB media supplemented with ampicillin (100 μg/mL). Protein over-expression was induced by the addition of 1 mM IPTG for 4 hours at 37° C., and cells were pelleted by centrifugation at 6,000 g for 15 minutes at 4° C. The cells were resuspended in lysis buffer (20 mM MES, 400 mM NaCl, 0.2 mM MgCl2, 1 mM EGTA, protease inhibitor cocktail (P8340, Sigma Aldrich), 0.25 mg/mL lysozyme, and 1 μg/mL DNase 1, pH 6.8) and lysed by a French press cell disruptor at 4° C., after which the lysate was boiled for 20 minutes. Denatured proteins were pelleted by centrifugation at 30,000 g for 30 minutes at 4° C., and the supernatant was dialyzed overnight against cation exchange buffer (20 mM MES, 50 mM NaCl, 1 mM MgCl2, 1 mM EGTA, 2 mM DTT, 0.1 mM PMSF, pH 6.8). The dialysate was loaded onto a HiPrep SP HP column, and proteins were eluted with a linear gradient ranging from 50 mM to 1 M NaCl. Fractions containing tau isoform 2N4R were pooled, and the resulting protein solution was dialyzed against PBS (pH 7.4) and stored at −80° C.
as §2

[7] = biological target: T7, TTR101-125 (Homo sapiens, UniProt P02766); experiment: ThT fluorescence assay of TTR101-125 fibril formation; conditions: screen on prone-to-aggregate proteins (FIG. 4A)
T7 construct: TTR fragments 1-25, 26-50, 51-75, 76-100, 81-105, 101-125, and 101-125 were obtained from GenScript; purchased GenScript; host or cells: synthetic peptide
Protocol: as §1

[8] = biological target: T8, islet amyloid polypeptide (IAPP) (Homo sapiens, UniProt P10997); experiment: ThT fluorescence assay of IAPP fibril formation; conditions: screen on prone-to-aggregate proteins (FIG. 2A, FIG. 4A); IAPP 10 μM
T8 construct: Human islet amyloid polypeptide (IAPP) was procured from AnaSpec; purchased AnaSpec; host or cells: synthetic peptide
T8 sequence (P10997 34-70 limits assumed): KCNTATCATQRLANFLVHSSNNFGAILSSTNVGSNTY
Protocol: as §1, with “All results contained in histograms were presented as mean±SEM. Data were analyzed by the one-way analysis of variance with Dunnett's multiple comparisons between controls and compounds. Differences were considered statistically significant at p<0.05.” left out

[9] = biological target: T6, tau isoform 2N4R; experiment: ThT kinetics of tau isoform 2N4R fibril formation; conditions: tau 6 μM, compound 100 μM
Protocol: as §4, §3

[10] = biological target: T4, α-syn; experiment: Photo-induced cross-linking of unmodified proteins (PICUP), α-syn oligomerization; conditions: compound 200 μM
[11] = screen on prone-to-aggregate proteins (FIG. 2A, FIG. 4A)

T6 sequence (P10636 1-441 isoform P10636-8): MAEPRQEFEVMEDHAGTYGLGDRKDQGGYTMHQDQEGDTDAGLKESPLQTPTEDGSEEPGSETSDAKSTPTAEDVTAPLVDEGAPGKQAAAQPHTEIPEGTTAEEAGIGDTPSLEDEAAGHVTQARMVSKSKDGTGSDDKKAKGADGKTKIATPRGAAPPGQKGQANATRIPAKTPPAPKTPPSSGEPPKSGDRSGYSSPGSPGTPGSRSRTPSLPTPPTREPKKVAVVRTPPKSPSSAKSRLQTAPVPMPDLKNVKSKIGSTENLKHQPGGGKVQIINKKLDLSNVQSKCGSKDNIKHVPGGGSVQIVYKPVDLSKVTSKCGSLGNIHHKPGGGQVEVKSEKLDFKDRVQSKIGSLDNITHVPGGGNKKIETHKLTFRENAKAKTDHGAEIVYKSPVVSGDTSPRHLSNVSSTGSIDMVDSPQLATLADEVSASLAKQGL
T2 sequence (P05067 672-711 limits assumed): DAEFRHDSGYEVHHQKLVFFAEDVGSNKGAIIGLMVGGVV
T1 sequence (P05067 672-713 limits assumed): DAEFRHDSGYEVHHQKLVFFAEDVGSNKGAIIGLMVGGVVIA

thioflavin T fluorescence intensity, Aβ1-42 [1] | thioflavin T fluorescence intensity, Aβ1-40 [2] | remaining activity at 100 µM [3] [%] | thioflavin T fluorescence intensity, TTR81-127 [3, 11] | remaining activity at 100 µM [5] [%] | thioflavin T fluorescence intensity, α-syn [5, 11] | thioflavin T fluorescence intensity, TTR101-125 [7] | thioflavin T fluorescence intensity, IAPP [8] | lag time of tau isoform 2N4R fibril formation [9] | SMILES | α-syn oligomer formation (PICUP) [4] | tau isoform 2N4R oligomer formation (PICUP) [6] | production of tau isoform 2N4R fibrils (ThT kinetic aggregation curves) [9] | α-syn oligomer formation (PICUP) at high concentration [10]
greater than 100% | greater than 100% | > 100 | greater than 100% | > 100 | greater than 100% | greater than 100% | greater than 100% | – | Clc1nc(Cl)nc(Nc2ccc(-c3nc4ccccc4s3)cc2)n1 [Compound 5, N-[4-(1,3-benzothiazol-2-yl)phenyl]-4,6-dichloro-1,3,5-triazin-2-amine] | high molecular weight bands representing the oligomeric species | high molecular weight bands representing the oligomeric species | – | –
– | – | 73.4 ± 1.9 | – | 16.4 ± 7.8 | – | – | – | delayed the lag time | CCNC(=O)N(C(=O)NCC)c1nsc2ccc([N+](=O)[O-])cc12 [Compound 13, N-ethyl-1-[(ethylcarbamoyl)(5-nitro-1,2-benzothiazol-3-yl)amino]formamide] | – | – | reduced the production of tau isoform 2N4R fibrils | reduced substantially the oligomer formation

— patent publication US20260224538A1 (Purdue Research Foundation, priority 2023, published 2026)
